Experimental data taken from US5190961A, “Thiourea derivatives and antimicrobial agent and antulcer agent containing the same” (Terumo Kabushiki Kaisha, priority 1990, dated 1993).
Values after ≈ are worked out from the molar mass of the structure shown.

Columns and labels:
[1] = tested on: peptic ulcer induced by water immersion restraint stress; assay: Inhibitory action against the peptic ulcer induced by water immersion restraint stress; assay type: in vivo; conditions: Rattus norvegicus; SD male rats, 32 mg/kg oral, water immersion restraint stress 23° C., 7 hours; read-out: Inhibitory action against stress peptic ulcer, Percent inhibition of p.u. formation
Experimental: (1) Inhibitory action against the peptic ulcer induced by water immersion restraint stress
(§1) SD male rats (weighing 200-300 g) were fasted for 24 hours before oral administration of a thiourea derivative of the invention at a dose of 32 mg/kg bodyweight. One hour later, the animal was put in a stress cage and loaded with water immersion restraint stress in a water bath at 23° C. Seven hours after loading with the stress, the rate was sacrificed with ether, and the stomach was excised and treated with formalin. Area (mm^2 ) of the lesions developed in the glandular stomach area was then measured. Results were expressed in sum of the lesions per animal which was referred to as peptic ulcer index.
(§2) It was confirmed that the thiourea derivatives of the invention not shown in the table also have a similar antiulcer activity.
Percent inhibition of the peptic ulcer formation (%) as shown in the table was calculated according to the following equation: [formula]

[2] = tested on: ethanol peptic ulcer; assay: Inhibitory action against ethanol peptic ulcer; assay type: in vivo; conditions: Rattus norvegicus; SD male rats, 32 mg/kg oral, 1 hour before ethanol 0.5 ml/100 g; read-out: Inhibitory action against ethanol peptic ulcer, Percent inhibition of p.u. formation
Experimental: (2) Inhibitory action against ethanol peptic ulcer
as §1, with “ethanol” for “the animal”, “orally given” for “put”, “volume of 0.5 ml/100 g bodyweight. One hour after treating” for “stress cage and loaded”, “ethanol,” for “water immersion restraint stress in a water bath at 23° C. Seven hours after loading with”, “rat” for “stress, the rate”, “(mm^2)” for “(mm^2 )”
as §2
Percent inhibition of the peptic ulcer formation (%) as shown in the table was calculated according to the same equation as mentioned above.

[3] = tested on: Helicobacter pylori; assay: Antimicrobial activity against Helicobacter pylori (MIC); assay type: cell-based, Helicobacter pylori strain NCTC 11916; conditions: NCTC11916, strain NCTC 11916, twofold dilution, 37° C., 3-5 days, O2 about 5%
Experimental: (3) Antimicrobial activity against Helicobacter pylori
Antimicrobial activity of the thiourea derivatives according to the invention against Helicobacter pylori (or Campylobacter pylori) was evaluated by employing strain NCTC 11916 as a Helicobacter test organism and determining MIC (minimum inhibitory concentration) for the strain with the thiourea derivative.
The Helicobacter pylori was pre-incubated in a plate medium for 3-5 days. The medium was prepared by dissolving 38 g of a Mueller-Hinton medium (manufactured by Difco) in an appropriate amount of distilled water, sterilizing the solution in an autoclave, adding to the solution 50 ml of a horse hemolysis solution (manufactured by Nippon Seibutu Zairyou Center: Horse defibrinized blood, hemolyzed by a lyophilization treatment) and 2 ml of Skirrow, a Campylobacter selective supplement (manufactured by OXOID) containing vancomycin (5 mg), trimethoprim (2.5 mg) and polymyxin B (1250 IU) per vial (2 ml), and further an appropriate amount of distilled water to a volume of 1L in total and expanding and solidifying the solution on a dish. These antibiotics were contained for inhibition of the growth of microorganism other than Helicobacter pylori. The Helicobacter pylori pre-incubated under slightly aerobic conditions (an O2 concentration of about 5%) at 37° C. for 3-5 days was suspended in a physiological saline solution in a concentration of approximately 10^8 organisms/ml. Approximately 10-20 μl of the suspension was inoculated on a medium for MIC measurement in cross streaks. […] The DMSO solution was formed by the twofold dilution method. As in the pre-incubation, the Helicobacter pylori was cultured under slightly aerobic conditions at 37° C. for 3-5 days. After completion of the culture, growth of the microoranisms on the streaks was visually determined. The minimum concentration of the thiourea derivative in which no growth was observed was taken as MIC.
It was confirmed that the thiourea derivatives of the invention not shown in the table also have a similar antimicrobial activity.

O=C(CCCNC(=S)Nc1ccccc1Oc1ccccc1)NCCCOc1cccc(CN2CCCCC2)c1 [Example 17, 1-[3-[N-[3-[3-(piperidinomethyl)phenoxy]propyl]carbamoyl]propyl]-3-(O-phenoxyphenyl)thiourea]
inhibition in vivo at 32 mg/kg [1]: 62.2% | inhibition in vivo at 32 mg/kg [2]: 73.3% | MIC [3]: 12.5 µg/mL (≈ 22.3 µM)

Cc1cc(C)cc(NC(=S)NCCCC(=O)NCCCOc2cccc(CN3CCCCC3)c2)c1 [Example 11, 1-[3-[N-[3-[3-(piperidinomethyl)phenoxy]propyl]carbamoyl]propyl]-3-(3,5-dimethylphenyl)thiourea]
inhibition in vivo at 32 mg/kg [1]: 85.5% | inhibition in vivo at 32 mg/kg [2]: 92.8% | MIC [3]: 6.25 µg/mL (≈ 12.6 µM)

O=C(CCCNC(=S)Nc1ccccc1)NCCCOc1cccc(CN2CCCC2)c1 [Example 9, 1-[3-[N-[3-[3-(pyrrolidinomethyl)phenoxy]propyl]carbamoyl]propyl]-3-phenylthiourea]
inhibition in vivo at 32 mg/kg [1]: 58.6% | inhibition in vivo at 32 mg/kg [2]: 77.9% | MIC [3]: 6.25 µg/mL (≈ 13.7 µM)

N#Cc1cccc(NC(=S)NCCCC(=O)NCCCOc2cccc(CN3CCCCC3)c2)c1 [Example 20, 1-[3-[N-[3-[3-(piperidinomethyl)phenoxy]propyl]carbamoyl]propyl]-3-(3-cyanophenyl)thiourea]
inhibition in vivo at 32 mg/kg [1]: 70.2% | inhibition in vivo at 32 mg/kg [2]: 83.5% | MIC [3]: 12.5 µg/mL (≈ 25.3 µM)
